According to the supplement of paper PMC10307832:

Assays:
Test in all cases: relative viability (nuclei count vs DMSO), 5 days (fraction); higher = more cells survive
Masitinib + Palbociclib = compound: Cc1ccc(NC(=O)c2ccc(CN3CCN(C)CC3)cc2)cc1Nc1nc(-c2cccnc2)cs1 [Masitinib] + CC(=O)c1c(C)c2cnc(Nc3ccc(N4CCNCC4)cn3)nc2n(C2CCCC2)c1=O [Palbociclib] (partner 0.5 µM)
How it was run: (§1)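 Dosing by pin tool came one day after lung cancer cell lines were seeded in 1536-well plates, using either one drug or a fixed anchor-drug dose plus five library-drug doses (not always all listed) in √10 steps. After 5 days, nuclei were counted on 4× images. Relative viability is treated-well nuclei count divided by vehicle-well nuclei count, and values are medians of duplicate plates.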

Masitinib + Bortezomib = compound: Cc1ccc(NC(=O)c2ccc(CN3CCN(C)CC3)cc2)cc1Nc1nc(-c2cccnc2)cs1 [Masitinib] + CC(C)C[C@H](NC(=O)[C@H](Cc1ccccc1)NC(=O)c1cnccn1)B(O)O [Bortezomib] (partner 0.002 µM)
How it was run: as §1

Masitinib + AZD7762 = compound: Cc1ccc(NC(=O)c2ccc(CN3CCN(C)CC3)cc2)cc1Nc1nc(-c2cccnc2)cs1 [Masitinib] + NC(=O)Nc1cc(-c2cccc(F)c2)sc1C(=O)N[C@H]1CCCNC1 [AZD7762] (partner 0.2 µM)
How it was run: as §1

[1] = compound: CC1=CC(=CC=C1)NC2=NC(=CS2)C3=CC=NC=C3 + Cc1nc(NC(=O)N2CCC[C@H]2C(N)=O)sc1-c1ccnc(C(C)(C)C(F)(F)F)c1 [Alpelisib] (partner 2 µM)
How it was run: as §1

Cell Line | relative viability (Masitinib + Palbociclib; first compound 0.01 µM) | relative viability (Masitinib + Palbociclib; first compound 0.03162 µM) | relative viability (Masitinib + Palbociclib; first compound 0.1 µM) | relative viability (Masitinib + Palbociclib; first compound 0.3162 µM) | relative viability (Masitinib + Palbociclib; first compound 1 µM) | relative viability (Masitinib + Bortezomib; first compound 0.01 µM) | relative viability (Masitinib + Bortezomib; first compound 0.03162 µM) | relative viability (Masitinib + Bortezomib; first compound 0.1 µM) | relative viability (Masitinib + Bortezomib; first compound 0.3162 µM) | relative viability (Masitinib + Bortezomib; first compound 1 µM) | relative viability (Masitinib + AZD7762; first compound 0.01 µM) | relative viability (Masitinib + AZD7762; first compound 0.03162 µM) | relative viability (Masitinib + AZD7762; first compound 0.1 µM) | relative viability (Masitinib + AZD7762; first compound 0.3162 µM) | relative viability (Masitinib + AZD7762; first compound 1 µM) | relative viability ([1]; first compound 0.08 µM) | relative viability ([1]; first compound 0.253 µM) | relative viability ([1]; first compound 0.8 µM) | relative viability ([1]; first compound 2.53 µM) | relative viability ([1]; first compound 8 µM)
NCI-H2085 | 0.432 | 0.493 | 0.486 | 0.491 | 0.459 | 0.87 | 0.99 | 1.03 | 1.27 | 1.06 | 0.872 | 0.915 | 0.819 | 0.893 | 0.886 | 0.887 | 1.02 | 0.946 | 0.833 | 0.705
NCI-H2347 | 0.381 | 0.389 | 0.408 | 0.422 | 0.444 | 0.829 | 1.02 | 0.938 | 0.899 | 0.903 | 0.853 | 0.733 | 0.675 | 0.647 | 0.73 | 0.821 | 1.11 | 0.614 | 1.07 | 0.993
EKVX | 0.35 | 0.333 | 0.343 | – | 0.295 | – | 1.04 | 1.05 | 0.444 | 0.671 | 0.783 | 0.824 | 0.71 | – | 0.637 | 0.764 | 0.812 | 0.824 | 0.643 | 0.656
EPLC-272H | 0.299 | 0.331 | 0.327 | 0.295 | 0.329 | 0.97 | 0.85 | 0.917 | 1.16 | 0.839 | 0.245 | 0.206 | 0.211 | 0.258 | 0.161 | 0.894 | – | 0.927 | – | 0.869
NCI-H3122 | 0.163 | 0.197 | 0.227 | 0.18 | 0.175 | 1.09 | 0.997 | 1.1 | 1.03 | 0.984 | 0.797 | 0.994 | 0.993 | 0.921 | 0.984 | 0.724 | 0.794 | 0.843 | 1.01 | 0.923
NCI-H1792 | 0.572 | 0.448 | 0.701 | 0.611 | 0.611 | 0.759 | 0.387 | 0.945 | 0.994 | 1.01 | 0.733 | 0.502 | 0.611 | 0.39 | 0.547 | 0.628 | 0.523 | 0.567 | 0.443 | 0.589
HCC-78 | 0.436 | 0.451 | 0.497 | 0.488 | 0.534 | 0.49 | 0.419 | 0.515 | 0.406 | 0.394 | 0.509 | 0.524 | 0.71 | 0.454 | 0.572 | 0.26 | 0.284 | 0.365 | 0.317 | 0.366
LOU-NH91 | 0.564 | 0.47 | 0.57 | 0.562 | 0.527 | 0.481 | 0.468 | 0.506 | 0.492 | 0.49 | 0.748 | 0.628 | 0.799 | 0.642 | 0.548 | 0.617 | 0.686 | 0.59 | 0.698 | 0.592
NCI-H322M | 0.483 | 0.487 | 0.426 | 0.531 | 0.454 | 1.23 | 1.11 | 1.26 | 1.21 | 1.17 | 0.435 | 0.533 | 0.423 | 0.515 | 0.534 | 0.747 | 0.868 | 0.771 | 0.903 | 0.853
HCC-827 | 0.395 | 0.466 | 0.389 | 0.613 | 0.441 | 0.842 | 1.04 | 1.03 | 1.09 | 1.08 | 0.224 | 0.198 | 0.192 | 0.165 | 0.213 | 0.946 | 0.913 | 0.907 | 1.03 | 0.836
NCI-H1993 | 0.674 | 0.527 | 0.536 | 0.516 | 0.654 | 1.01 | – | 1.21 | 1.03 | 1.03 | 0.786 | 0.625 | 0.753 | 0.745 | 0.684 | 0.683 | 0.683 | 0.719 | 0.644 | 0.619
NCI-H1734 | 0.362 | 0.327 | 0.393 | 0.394 | 0.335 | 0.899 | 0.772 | 1.01 | 0.949 | 0.853 | 0.595 | 0.515 | 0.599 | 0.599 | 0.545 | 0.615 | 0.683 | 0.672 | 0.757 | 0.687
NCI-H1666 | 0.665 | 0.63 | 0.696 | 0.628 | 0.617 | 0.71 | 0.726 | 0.854 | 0.555 | 0.612 | 0.763 | 0.743 | 0.806 | 0.527 | 0.816 | 0.44 | 0.597 | 0.447 | 0.472 | 0.298
NCI-H460 | 0.0985 | 0.105 | 0.14 | 0.071 | 0.126 | 1.03 | 1 | 1.2 | 1.15 | 1.28 | 0.62 | 0.605 | 0.655 | 0.357 | 0.525 | 0.331 | 0.368 | 0.375 | 0.37 | 0.307
LCLC-103H | – | 0.471 | 0.458 | 0.511 | 0.475 | 0.821 | 1.23 | 1.02 | 0.948 | 0.994 | – | 0.885 | 0.566 | 0.831 | 0.791 | 0.774 | 0.875 | 0.909 | 0.967 | 0.883
LCLC-97TM1 | 0.192 | 0.15 | 0.25 | 0.285 | 0.208 | 0.61 | – | 0.749 | 0.741 | 0.83 | 0.235 | 0.288 | 0.229 | 0.191 | 0.229 | – | – | 0.298 | 0.258 | 0.238
NCI-H838 | 0.205 | 0.182 | 0.22 | 0.192 | 0.244 | 0.793 | 0.83 | 0.965 | 0.758 | 0.69 | 0.818 | 0.883 | 0.913 | 0.845 | 0.892 | 0.91 | 0.914 | 0.868 | 0.863 | 0.743
